Assay results taken from patent US20260097091A1, “ADMINISTRATION OF GLUTATHIONE TRISULFIDE TO AMELIORATE PERIPHERAL NEUROPATHY” (The General Hospital Corporation, priority 2022, published 2026).

Columns and labels:
[1] = system: intraepidermal nerve fibers of hind paws; test: density of intraepidermal nerve fibers in hind paw skin (immunohistochemistry); assay type: in vivo, mice (C57BL/6J); settings: for density of intraepidermal nerve fibers: paclitaxel alone
Description: Paclitaxel (Sigma-Aldrich) was dissolved with ethanol and cremophor (1:1) and diluted with normal saline (1:4). Peripheral neuropathy was induced in mice by intraperitoneal (i.p.) administration of 4 mg/kg paclitaxel every other day for a total of 4 injections (cumulative dose of 16 mg/kg), according to a previously described protocol. A stable, crystallized form of GSSSG was produced and provided by Kyowa Hakko Bio CO., LTD. GSSSG was pulverized and mixed in 0.5% methylcellulose. To evaluate the therapeutic effects of GSSSG in a model of PIPN, mice were randomly divided into three groups of 6. Mice were treated with: 1) paclitaxel alone; 2) paclitaxel and GSSSG; 3) or vehicle alone (control). Mice in groups 1 and 2 received paclitaxel as described above, while mice in the control group received the same volume of vehicle. The first dose of GSSSG was given within 1 hour after the first PTX injection. Treatment was administered as oral gavage for 28 days with GSSSG at 50 mg/kg/day (group 2) or 0.5% methylcellulose (groups 1 and 3). The dose of GSSSG was determined based on pilot studies. To determine the effect of GSSSG on the development of PIPN, behavioral tests to assess allodynia and hyperalgesia were conducted on all mice on days-1 (baseline), 7, 14, 21, and 28 after paclitaxel administration. Behavioral tests were performed by an investigator who was blinded to the treatment groups, as described in the next section. Density of intraepidermal nerve fiber (fibers/mm) of hind paws was calculated to evaluate peripheral nerve fiber damage by paclitaxel. Mice were deeply anesthetized with Isoflurane (4%) and euthanized by exsanguination on week 1 or week 4 after paclitaxel treatment for tissue harvest. […] Ten images per mouse (6 mice per group) were taken by fluorescence microscopy (Nikon Eclipse 80i, Nikon Instruments, Inc., Melville, NY), and four out of ten images were randomly selected. The density (fibers/mm basement membrane) was calculated as the number of intraepidermal nerve fiber divided by the length of basement membrane in accordance with the guideline.

[2] = system: sciatic nerve; test: transmission electron microscopy of sciatic nerve (unmyelinated neurons, mitochondria); assay type: in vivo, mice (C57BL/6J); settings: for median area of mitochondria in unmyelinated neuron: sciatic nerve at 4 weeks, control 0.036
Description: Paclitaxel (Sigma-Aldrich) was dissolved with ethanol and cremophor (1:1) and diluted with normal saline (1:4). Peripheral neuropathy was induced in mice by intraperitoneal (i.p.) administration of 4 mg/kg paclitaxel every other day for a total of 4 injections (cumulative dose of 16 mg/kg), according to a previously described protocol. A stable, crystallized form of GSSSG was produced and provided by Kyowa Hakko Bio CO., LTD. GSSSG was pulverized and mixed in 0.5% methylcellulose. To evaluate the therapeutic effects of GSSSG in a model of PIPN, mice were randomly divided into three groups of 6. Mice were treated with: 1) paclitaxel alone; 2) paclitaxel and GSSSG; 3) or vehicle alone (control). Mice in groups 1 and 2 received paclitaxel as described above, while mice in the control group received the same volume of vehicle. The first dose of GSSSG was given within 1 hour after the first PTX injection. Treatment was administered as oral gavage for 28 days with GSSSG at 50 mg/kg/day (group 2) or 0.5% methylcellulose (groups 1 and 3). The dose of GSSSG was determined based on pilot studies. To determine the effect of GSSSG on the development of PIPN, behavioral tests to assess allodynia and hyperalgesia were conducted on all mice on days-1 (baseline), 7, 14, 21, and 28 after paclitaxel administration. Behavioral tests were performed by an investigator who was blinded to the treatment groups, as described in the next section. To evaluate unmyelinated neurons and mitochondria, we examined neurons in sciatic nerve by a transmission electron microscope. Resin-embedded nerve blocks using the same method above were sectioned at 50 nm by an ultramicrotome. Sections were examined with an FEI Morgagni transmission electron microscope. Low (×2200) and high (×11000) magnification of images were captured with an AMT 2K charge-coupled device camera (Advanced Microscopy Techniques, Woburn, MA, USA). Unmyelinated neurons were quantified in 9 low magnified images per group (3 mice per group). The percentage of unmyelinated neurons was calculated by dividing unmyelinated neurons by the total number of neurons. The cross-sectional area of mitochondria (μm^2) in unmyelinated neurons was quantified in 18 to 20 high magnified images per group (3 mice per group). In total, 80 to 100 mitochondrion per group were evaluated. Quantification was conducted by a blinded examiner, and the images were evaluated by a pathologist (A S-R) blinded to the identity of samples.

[3] = system: primary cortical neurons; test: Dihydroethidium (DHE) superoxide assay in primary cortical neurons; assay type: cell-based, mice
Description: Primary cortical neurons were prepared from the cortex of mice on embryonic day 15, as described previously. In brief, the embryo's cortex was isolated in Hanks' balanced salt solution and centrifuged at 176×g (1000 rpm) for 3 minutes. After aspirating the solution, cells were incubated with 0.25% trypsin for 15 minutes and seeded 20,000/well in a 96-well plate coated with the poly-D-lysin (Gibco, Cat No. A3890401). They were incubated in Neurobasal medium (Gibco, Cat No. 21103049) with 2% B27 supplement (Gibco, Cat No. 10889038), 1% penicillin/streptomycin, and 1% Glutamax (Gibco, Cat No. 35050061) until day 11 when they were used for experiments.
To examine whether GSSSG reduces ROS generated by paclitaxel, we conducted Dihydroethidium (DHE) assay (Abcam, Cat No. ab236206) that is sensitive to superoxide. The experiment was done according to protocol provided by the manufacturer. Briefly, primary cortical neurons were incubated in DHE reagent with or without 10 and 30 μM of GSSSG for 30 minutes. After incubating, 100 nM of paclitaxel was administered, and cells were incubated for one hour. Fluorescence of DHE was measured at 490 nm of excitation and 585 nm of emission wavelength.

[4] = paclitaxel alone, 4 weeks, vs control mice

| SMILES | paclitaxel-induced loss of intraepidermal nerve fibers ([1]; daily oral 50 mg/kg GSSSG in paclitaxel-treated mice, 4 weeks after starting paclitaxel) | mitochondrial swelling in axons of unmyelinated neurons ([2]; paclitaxel and GSSSG 50 mg/kg/day oral, 4 weeks) | ratio of unmyelinated neurons to total neurons in sciatic nerve ([2]; paclitaxel and GSSSG 50 mg/kg/day oral, 4 weeks, vs paclitaxel alone) | median area of mitochondria in unmyelinated neuron ([2]; paclitaxel with GSSSG 50 mg/kg/day oral) | paclitaxel-induced increase of intracellular superoxide (DHE) ([3]; 10 μM GSSSG co-incubation with 100 nM paclitaxel, vs paclitaxel) | density of intraepidermal nerve fibers ([1]; 1 week after starting paclitaxel) | density of intraepidermal nerve fibers ([1]; 4 weeks after starting paclitaxel) | cross-sectional area of mitochondria in unmyelinated sciatic neurons [2, 4] | ratio of unmyelinated neurons to total neurons in sciatic nerve [2, 4] | median area of mitochondria in unmyelinated neuron ([2]; paclitaxel alone) | intracellular levels of superoxide (DHE) ([3]; 100 nM paclitaxel for one hour, vs control) |
| --- | --- | --- | --- | --- | --- | --- | --- | --- | --- | --- | --- |
| N[C@@H](CCC(=O)N[C@@H](CSSSC[C@H](NC(=O)CC[C@H](N)C(=O)O)C(=O)NCC(=O)O)C(=O)NCC(=O)O)C(=O)O [GSSSG, glutathione trisulfide] | prevented paclitaxel-induced loss of intraepidermal nerve fibers | Prevented Mitochondrial Swelling | larger ratio of unmyelinated neurons | 0.041 μm^2 | prevented the paclitaxel-induced increase of intracellular superoxide |  |  |  |  |  |  |
| CC(=O)O[C@H]1C(=O)[C@@]2(C)[C@H]([C@H](OC(=O)c3ccccc3)[C@]3(O)C[C@H](OC(=O)[C@H](O)[C@@H](NC(=O)c4ccccc4)c4ccccc4)C(C)=C1C3(C)C)[C@]1(OC(C)=O)CO[C@@H]1C[C@@H]2O [paclitaxel, Paclitaxel, reference compound] |  |  |  |  |  | not at 1 week | decreased the density of intraepidermal nerve fibers at 4 weeks | significantly larger than those in control mice | tended to decrease unmyelinated neurons compared to control mice | 0.057 μm^2 | increased |
